Test results taken from ChEMBL document CHEMBL3745631, “Discovery of highly potent and selective Bruton's tyrosine kinase inhibitors: Pyridazinone analogs with improved metabolic stability” (Bioorg Med Chem Lett, 2016).

What was measured:
[1] = molecular target: Casein kinase I isoform gamma-2 (Homo sapiens) (UniProt P78368); assay: Inhibition of CK1 gamma2 (unknown origin) at 1 uM
[2] = molecular target: 3-phosphoinositide-dependent protein kinase 1 (Homo sapiens) (UniProt O15530); assay: Inhibition of PDK1 (unknown origin) at 1 uM by direct binding assay
[3] = molecular target: Tyrosine-protein kinase Fgr (Homo sapiens, UniProt P09769); assay: Inhibition of FGR (unknown origin)
Salmonella typhimurium = assay: Genotoxicity in Salmonella typhimurium TA100 by Ames test in absence of S9 fraction; format: toxicity, organism-based; conditions: salmonella enterica subsp. enterica serovar typhimurium
[4] = molecular target: Serine/threonine-protein kinase mTOR (Homo sapiens) (UniProt P42345); assay: Inhibition of mTOR (unknown origin) at 1 uM
[5] = molecular target: Serine/threonine-protein kinase BRSK1 (Homo sapiens) (UniProt Q8TDC3); assay: Inhibition of BrSK1 (unknown origin) at 1 uM
[6] = molecular target: Serine/threonine-protein kinase PAK 3 (Homo sapiens) (UniProt O75914); assay: Inhibition of PAK3 (unknown origin) at 1 uM
[7] = molecular target: Tyrosine-protein kinase ZAP-70 (Homo sapiens) (UniProt P43403); assay: Inhibition of ZAP-70 (unknown origin) at 1 uM
[8] = molecular target: Serine/threonine-protein kinase PAK 1 (Homo sapiens) (UniProt Q13153); assay: Inhibition of PAK1 (unknown origin) at 1 uM
[9] = molecular target: Mitogen-activated protein kinase kinase kinase kinase 2 (GCK) (Homo sapiens) (UniProt Q12851); assay: Inhibition of GCK (unknown origin) at 1 uM
Chain of Mitogen-activated protein kinase kinase kinase kinase 2 (GCK) (Homo sapiens) (Q12851 whole entry, looked up): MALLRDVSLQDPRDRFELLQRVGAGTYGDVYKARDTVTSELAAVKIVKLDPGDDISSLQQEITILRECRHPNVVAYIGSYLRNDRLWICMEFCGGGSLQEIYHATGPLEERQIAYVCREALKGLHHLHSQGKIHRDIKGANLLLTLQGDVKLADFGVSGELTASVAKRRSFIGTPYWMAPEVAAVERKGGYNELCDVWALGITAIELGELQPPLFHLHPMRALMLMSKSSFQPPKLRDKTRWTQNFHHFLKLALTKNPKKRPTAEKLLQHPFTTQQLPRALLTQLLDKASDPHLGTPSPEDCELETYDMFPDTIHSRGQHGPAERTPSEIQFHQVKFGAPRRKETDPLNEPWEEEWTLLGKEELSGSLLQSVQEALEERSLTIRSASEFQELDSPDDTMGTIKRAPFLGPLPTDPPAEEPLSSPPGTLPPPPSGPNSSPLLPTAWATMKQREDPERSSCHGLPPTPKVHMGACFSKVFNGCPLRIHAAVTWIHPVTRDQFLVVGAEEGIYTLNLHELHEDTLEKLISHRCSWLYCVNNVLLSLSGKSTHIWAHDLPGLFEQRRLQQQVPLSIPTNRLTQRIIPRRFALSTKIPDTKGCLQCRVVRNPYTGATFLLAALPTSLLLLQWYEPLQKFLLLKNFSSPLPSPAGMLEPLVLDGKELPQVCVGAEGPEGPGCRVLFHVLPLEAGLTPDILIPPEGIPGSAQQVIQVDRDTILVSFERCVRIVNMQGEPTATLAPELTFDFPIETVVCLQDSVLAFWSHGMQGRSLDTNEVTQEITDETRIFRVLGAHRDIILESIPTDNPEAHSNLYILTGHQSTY

Chain of Serine/threonine-protein kinase PAK 1 (Homo sapiens) (Q13153 whole entry): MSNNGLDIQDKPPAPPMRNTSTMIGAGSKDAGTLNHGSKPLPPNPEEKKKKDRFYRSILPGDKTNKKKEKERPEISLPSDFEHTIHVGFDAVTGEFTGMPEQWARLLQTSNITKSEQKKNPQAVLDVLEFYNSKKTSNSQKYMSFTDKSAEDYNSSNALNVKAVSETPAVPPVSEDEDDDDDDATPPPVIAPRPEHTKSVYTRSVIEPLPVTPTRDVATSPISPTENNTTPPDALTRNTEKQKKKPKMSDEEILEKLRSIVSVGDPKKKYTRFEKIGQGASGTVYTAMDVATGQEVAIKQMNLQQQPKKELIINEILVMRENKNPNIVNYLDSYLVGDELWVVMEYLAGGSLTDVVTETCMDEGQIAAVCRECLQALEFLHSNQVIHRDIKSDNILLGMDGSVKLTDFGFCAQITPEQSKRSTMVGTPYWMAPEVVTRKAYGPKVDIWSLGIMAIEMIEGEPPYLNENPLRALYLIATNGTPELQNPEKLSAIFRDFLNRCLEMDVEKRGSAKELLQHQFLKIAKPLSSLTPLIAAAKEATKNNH
Chain of Serine/threonine-protein kinase BRSK1 (Homo sapiens) (Q8TDC3 whole entry): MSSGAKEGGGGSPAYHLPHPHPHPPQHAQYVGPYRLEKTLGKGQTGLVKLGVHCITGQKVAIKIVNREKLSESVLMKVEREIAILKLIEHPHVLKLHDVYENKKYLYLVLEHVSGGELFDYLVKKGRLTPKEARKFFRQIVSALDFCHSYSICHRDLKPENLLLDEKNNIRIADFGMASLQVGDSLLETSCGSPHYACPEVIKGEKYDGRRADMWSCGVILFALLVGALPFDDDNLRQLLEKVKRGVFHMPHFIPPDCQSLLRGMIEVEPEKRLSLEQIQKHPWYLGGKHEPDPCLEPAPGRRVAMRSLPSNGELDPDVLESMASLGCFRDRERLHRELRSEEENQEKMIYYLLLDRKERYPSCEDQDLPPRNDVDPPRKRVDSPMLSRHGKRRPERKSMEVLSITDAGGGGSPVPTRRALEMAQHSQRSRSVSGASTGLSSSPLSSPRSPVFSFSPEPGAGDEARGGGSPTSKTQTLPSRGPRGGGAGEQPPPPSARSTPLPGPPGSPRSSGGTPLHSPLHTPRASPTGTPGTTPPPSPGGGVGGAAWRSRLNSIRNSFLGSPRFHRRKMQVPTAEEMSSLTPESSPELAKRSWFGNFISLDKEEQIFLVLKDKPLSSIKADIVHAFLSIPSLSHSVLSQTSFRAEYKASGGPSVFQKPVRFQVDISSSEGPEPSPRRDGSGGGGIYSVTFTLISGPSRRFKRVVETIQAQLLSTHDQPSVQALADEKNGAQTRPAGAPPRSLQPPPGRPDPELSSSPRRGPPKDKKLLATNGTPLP
Chain of Casein kinase I isoform gamma-2 (Homo sapiens) (P78368 whole entry, looked up, canonical isoform): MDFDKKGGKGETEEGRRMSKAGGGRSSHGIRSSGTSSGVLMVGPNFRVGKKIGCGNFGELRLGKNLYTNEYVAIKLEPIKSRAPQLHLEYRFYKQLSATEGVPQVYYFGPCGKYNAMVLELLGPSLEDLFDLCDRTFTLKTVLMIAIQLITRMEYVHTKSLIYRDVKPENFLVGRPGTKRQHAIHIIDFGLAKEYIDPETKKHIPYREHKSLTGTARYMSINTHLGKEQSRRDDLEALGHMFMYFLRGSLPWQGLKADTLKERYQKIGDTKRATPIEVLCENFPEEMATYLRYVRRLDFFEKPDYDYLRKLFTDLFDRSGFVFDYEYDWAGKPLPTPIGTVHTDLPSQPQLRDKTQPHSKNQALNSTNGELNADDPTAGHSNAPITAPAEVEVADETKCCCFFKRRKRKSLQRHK
Chain of 3-phosphoinositide-dependent protein kinase 1 (Homo sapiens) (O15530 whole entry): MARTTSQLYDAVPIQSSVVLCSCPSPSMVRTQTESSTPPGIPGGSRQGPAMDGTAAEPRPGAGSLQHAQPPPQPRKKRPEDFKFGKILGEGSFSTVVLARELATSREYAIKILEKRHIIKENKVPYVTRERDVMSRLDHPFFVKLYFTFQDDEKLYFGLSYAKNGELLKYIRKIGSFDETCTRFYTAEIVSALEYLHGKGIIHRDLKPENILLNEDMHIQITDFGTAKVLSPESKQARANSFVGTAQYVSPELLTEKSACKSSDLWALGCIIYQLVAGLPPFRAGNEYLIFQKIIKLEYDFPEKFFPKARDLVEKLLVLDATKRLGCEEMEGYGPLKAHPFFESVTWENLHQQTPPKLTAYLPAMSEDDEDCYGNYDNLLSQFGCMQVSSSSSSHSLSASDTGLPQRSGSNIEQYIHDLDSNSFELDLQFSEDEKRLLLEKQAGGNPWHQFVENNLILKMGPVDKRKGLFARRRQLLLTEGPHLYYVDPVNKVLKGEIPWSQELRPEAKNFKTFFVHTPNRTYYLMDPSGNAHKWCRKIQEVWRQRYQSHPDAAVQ
Chain of Tyrosine-protein kinase Fgr (P09769 whole entry): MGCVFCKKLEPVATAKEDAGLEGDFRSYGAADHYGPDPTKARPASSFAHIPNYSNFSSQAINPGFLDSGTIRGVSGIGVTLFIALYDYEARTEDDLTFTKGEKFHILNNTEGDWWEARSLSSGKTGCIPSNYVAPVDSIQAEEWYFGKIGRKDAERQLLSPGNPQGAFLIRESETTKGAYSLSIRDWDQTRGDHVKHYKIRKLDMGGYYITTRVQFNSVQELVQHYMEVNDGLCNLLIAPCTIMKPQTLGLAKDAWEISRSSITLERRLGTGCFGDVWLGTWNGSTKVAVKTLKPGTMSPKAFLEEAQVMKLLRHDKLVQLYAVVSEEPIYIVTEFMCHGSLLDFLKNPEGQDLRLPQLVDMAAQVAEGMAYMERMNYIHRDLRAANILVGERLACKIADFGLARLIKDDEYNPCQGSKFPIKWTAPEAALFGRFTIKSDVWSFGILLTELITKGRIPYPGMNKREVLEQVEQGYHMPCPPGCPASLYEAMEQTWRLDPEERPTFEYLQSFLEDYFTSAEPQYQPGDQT
Chain of Serine/threonine-protein kinase PAK 3 (Homo sapiens) (O75914 whole entry, looked up): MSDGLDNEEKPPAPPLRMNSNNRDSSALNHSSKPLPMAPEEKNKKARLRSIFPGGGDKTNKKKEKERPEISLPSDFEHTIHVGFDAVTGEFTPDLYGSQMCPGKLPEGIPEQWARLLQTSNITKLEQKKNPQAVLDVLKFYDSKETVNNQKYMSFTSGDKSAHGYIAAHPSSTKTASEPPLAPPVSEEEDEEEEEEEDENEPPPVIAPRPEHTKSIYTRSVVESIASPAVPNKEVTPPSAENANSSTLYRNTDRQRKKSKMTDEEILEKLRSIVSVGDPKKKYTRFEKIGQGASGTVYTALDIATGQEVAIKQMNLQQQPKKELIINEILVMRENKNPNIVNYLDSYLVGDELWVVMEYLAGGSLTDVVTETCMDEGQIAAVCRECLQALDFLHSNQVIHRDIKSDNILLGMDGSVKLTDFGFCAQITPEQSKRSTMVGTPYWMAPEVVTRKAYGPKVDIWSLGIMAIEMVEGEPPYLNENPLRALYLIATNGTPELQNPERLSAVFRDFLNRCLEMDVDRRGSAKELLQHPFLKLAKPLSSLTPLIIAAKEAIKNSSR
Chain of Tyrosine-protein kinase ZAP-70 (Homo sapiens) (P43403 whole entry): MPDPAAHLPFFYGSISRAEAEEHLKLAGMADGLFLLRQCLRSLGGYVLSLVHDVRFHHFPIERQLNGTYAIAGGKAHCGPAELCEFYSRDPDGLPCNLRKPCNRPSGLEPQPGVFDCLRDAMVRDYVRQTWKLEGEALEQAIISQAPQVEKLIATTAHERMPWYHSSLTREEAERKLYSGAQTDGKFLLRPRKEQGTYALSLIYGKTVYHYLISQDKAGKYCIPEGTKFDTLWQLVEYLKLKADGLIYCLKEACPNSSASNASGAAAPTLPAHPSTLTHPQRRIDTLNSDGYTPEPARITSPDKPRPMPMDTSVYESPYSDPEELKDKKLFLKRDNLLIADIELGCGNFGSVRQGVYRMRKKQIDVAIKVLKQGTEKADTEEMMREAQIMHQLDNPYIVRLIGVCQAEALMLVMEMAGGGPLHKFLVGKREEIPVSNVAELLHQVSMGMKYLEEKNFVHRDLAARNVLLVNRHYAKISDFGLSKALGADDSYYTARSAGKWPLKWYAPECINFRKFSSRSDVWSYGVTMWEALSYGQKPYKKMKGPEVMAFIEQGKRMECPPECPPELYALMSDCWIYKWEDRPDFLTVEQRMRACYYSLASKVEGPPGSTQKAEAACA

inhibition [1]: 1.9% | inhibition [2]: -8% | IC50 [3]: 1030 nM | inhibition [4]: 1.1% | inhibition [5]: 0.8% | inhibition [6]: 14.6% | inhibition [7]: 8.1% | inhibition [8]: 3.4% | inhibition [9]: -9%
SMILES: Cc1c(-c2cc(Nc3cc4n(n3)CCN(C)C4)c(=O)[nH]n2)ccc(F)c1NC(=O)c1cc2ccccc2s1
Activity (Salmonella typhimurium): Non-toxic
